Assay results taken from patent US20120302609A1, “Pyrazolines for the Modulation of PKM2” (Dynamix Pharmaceuticals LTD., priority 2011, published 2012).

Key:
HT-29 (colon) = assay: Cell proliferation assay (XTT or CellTiter-Glo); type: cell-based; details: Homo sapiens
Description: Day 0 Cells were seeded at 3000 cells/well in 100 μl full media in 96-well culture plates (60 wells/plate, external wells filled with 100 μl PBS) and incubated overnight. • Day 1 On the following day, full media was changed to the tested media and compounds were added in 0.5% DMSO final. • Day 2-5 Cells were incubated over 72 hr. • Day 5 Cell proliferation was assessed using XTT proliferation assay as follows:
The assay is based on the ability of metabolic active cells to reduce the tetrazolium salt XTT to orange colored compounds of formazan. The dye formed is water soluble and the dye intensity can be read at a given wavelength with a spectrophotometer. […] The use of multiwell plates and an ELISA reader enables testing a large number of samples and obtaining easy and rapid results. […] During incubation an orange color is formed, the intensity of which can be measured with a spectrophotometer, in this instance with an ELISA reader. The greater the number of active cells in the well, the greater the activity of mitochondria enzymes, and the higher the concentration of the dye formed, which can then be measured and quantitated.
• 1. […] The absorbance of the samples was measured against a background control as a blank (see 7) with a spectrophotometer (ELISA reader) at a wavelength of 450-500 nanometer. […] The average absorbance of the blank control wells was subtracted from that of the other wells. […]

[1] = H1299 nude mouse xenograft study, toxicity (body weight, deaths, organ weights); type: in vivo, mice; details: mouse, in vivo, ip; for Deaths NTR: female, nude (nu/nu)
Description: The animals were fed ad libitum water (reverse osmosis, 1 ppm Cl) and NIH 31 Modified and Irradiated Lab Diet® consisting of 18.0% crude protein, 5.0% crude fat, and 5.0% crude fiber. The mice were housed on irradiated Enrich-o′ Cobs™ Laboratory Animal Bedding in static microisolators on a 12-hour light cycle at 20-22° C. (68-72° F.) and 40-60% humidity.
Dosing began on D1 in four groups of mice (n=12/group in Groups 1, 3, and 4; n=6 in Group 2). XT26 and its vehicle were administered intraperitoneally (i.p.) twice daily for 28 days (b.i.d.×28), starting with the p.m. dose on D1 and ending with the a.m. dose on D29. Gemcitabine was administered i.p. once daily at three-day intervals for four doses (q3d×4). In all groups, the dosing volume of 10 ml/kg (0.2 ml/20 g mouse) was scaled to the weight of each individual animal, as measured twice weekly.
Group 1 mice received the XT26 vehicle b.i.d.×28, and served as the controls for the study. Group 2 received gemcitabine at 120 mg/kg. Group 3 was to receive XT26 at 100 mg/kg b.i.d.×28; on D21, four mice (Animals 1, 3, 4, and 5) erroneously received 200 mg/kg XT26 for their a.m. dose. Group 4 was to receive XT26 at 200 mg/kg b.i.d.×28, but dosing stopped on D9 (b.i.d.×8) because of toxicity. Group 4 dosing at 200 mg/kg resumed on D17 on a qd (once daily)×13 dosing schedule. Because of a scheduling error, the D19 dose for Group 4 mice was omitted; qd dosing occurred on Days 17, 18, and 20-28.
Animals were weighed daily on D1-5, then twice weekly until the completion of the study. The mice were observed frequently for overt signs of any adverse, treatment-related side effects.
On D10, both kidneys and the liver were harvested from each euthanized Group 4 animal. Each organ was weighed separately, fixed overnight in 10% neutral buffered formalin, and transferred to 70% ethanol.

COc1ccc([C@@H]2CC(c3ccc(NS(=O)(=O)c4ccc(F)cc4)cc3)=NN2C(C)=O)cc1 [Compound 13A, (S)—N-(4-(1-acetyl-5-(4-methoxyphenyl)-4,5-dihydro-1H-pyrazol-3-yl)phenyl)-4-fluorobenzenesulfonamide]
AC50 (HT-29 (colon); 1 mM glucose, Assay duration: 72 hours, Readout: XTT): 3 to 10 µM
AC50 (HT-29 (colon); Complete media, 96 hr, CellTiter-Glo): 10 to 20 µM
Deaths NTR ([1]; 100 mg/kg, 28 days): 0
Deaths NTR ([1]; 200 mg/kg): 0
Mean BW Nadir ([1]; 200 mg/kg): −13.6%
